Where two headings read alike, the source gives them in different places.

Assay [1] deals with Streptococcus Group D X66. Put plainly: MIC, standard agar-dilution assay. In kind it is cell-based.
The next assay relates to Staphylococcus aureus. Put plainly: ED50 in experimentally infected mice. In kind it is in vivo. Conditions: mice infected with Staphylococcus aureus; administered subcutaneously 1 and 4 hours postinfection.
The subject of another assay is Streptococcus Group 9960. In words: MIC, standard agar-dilution assay. In kind it is cell-based.
Assay [2] has as its system Haemophilus influenzae 76. In words: MIC, standard agar-dilution assay. In kind it is cell-based. Conditions: Haemophilus influenzae 76, ampicillin-resistant strain.
For assay [3], the system named is Staphylococcus aureus X400. Put plainly: MIC, standard agar-dilution assay. It is filed as cell-based. Conditions: Staphylococcus aureus X400, methicillin-resistant strain.
Assay [4] deals with Staphylococcus aureus V41. In words: MIC, standard agar-dilution assay. It is filed as cell-based.
In assay [5] the test system is Streptococcus pneumoniae Park I. It is filed as cell-based. Conditions: agar dilution.
Assay [6] relates to Streptococcus pyogenes C203. In words: MIC, standard agar-dilution assay. It is filed as cell-based.
Assay [7] concerns Staphylococcus epidermidis EPI2. In words: MIC, standard agar-dilution assay. In kind it is cell-based.
Assay [8] concerns Staphylococcus aureus S13E. In kind it is cell-based. The following applies: agar dilution.
Assay [9] has as its system Staphylococcus epidermidis EPI1. In kind it is cell-based.
The test system of assay [10] is Haemophilus influenzae C.L. Put plainly: MIC, standard agar-dilution assay. In kind it is cell-based. The following applies: ampicillin-sensitive strain.
The test system of assay [11] is Staphylococcus aureus X1.1. Put plainly: MIC, standard agar-dilution assay. It is filed as cell-based.
Setting [12] is: Streptococcus Group D X66, agar dilution.
[13] abbreviates: Streptococcus Group 9960, agar dilution.
Setting [14] is: Staphylococcus aureus V41, penicillin-resistant strain, agar dilution.
The mark [15] stands for this setting: Streptococcus pyogenes C203, agar dilution.
Setting [16] is: Staphylococcus epidermidis EPI1, agar dilution.
The mark [17] stands for this setting: Staphylococcus aureus X1.1, agar dilution.

In the case of “N--(3,5-dichlorobenzoyl)A35512B [Example 11]”, the MIC in assay [1] (setting [12]) was 4 µg/mL; against Streptococcus Group 9960 (setting [13]) it was 2 µg/mL; in assay [2] it was “-- (Compound not active at less than 128 mcg/ml)”; in assay [3], 8 µg/mL; in assay [4] (setting [14]), 4 µg/mL; in [5], 1 µg/mL. Also, the MIC was 1 µg/mL in [6] (setting [15]); 16 µg/mL in assay [7]; 8 µg/mL in assay [8]; 4 µg/mL in assay [9] (setting [16]); “-- (Compound not active at less than 128 mcg/ml)” in assay [10]; 8 µg/mL in assay [11] (setting [17]). Moreover, in the assay with Staphylococcus aureus, the ED50 turned out to be 11.8 mg/kg × 2.

Take “N--[(3-sydnone)acetyl]A35512B [Example 12]”: the MIC in assay [1] was found to be 8 µg/mL; with Streptococcus Group 9960, 8 µg/mL; in [3], 16 µg/mL; in assay [4], 8 µg/mL; in assay [5], 2 µg/mL; in assay [6], 2 µg/mL. Besides, the MIC in assay [7] turned out to be 16 µg/mL; in assay [8], 8 µg/mL; in [9], 8 µg/mL; in assay [11] it was 4 µg/mL. Further, the ED50 with Staphylococcus aureus is given as 10.97 mg/kg × 2.

On to N--(nonanoyl)A35512B [Example 8], for which the MIC is 4 µg/mL in assay [1] (setting [12]); 2 µg/mL against Streptococcus Group 9960 (setting [13]); 2 µg/mL in [3]; 2 µg/mL in assay [4] (setting [14]); 4 µg/mL in assay [5]; 2 µg/mL in assay [6] (setting [15]). Besides, the MIC in assay [7] stood at 4 µg/mL; in assay [8], 2 µg/mL; in [9] (setting [16]), 2 µg/mL; in assay [11] (setting [17]) it was 2 µg/mL. Also, the ED50 with Staphylococcus aureus was found to be 11.34 mg/kg × 2.

Take “N--[N--(t-Boc)--D-phenylglycyl]A35512B [Example 4]”: the MIC was 8 µg/mL in assay [1] (setting [12]); 4 µg/mL against Streptococcus Group 9960 (setting [13]); “-- (Compound not active at less than 128 mcg/ml)” in assay [2]; 16 µg/mL in assay [3]; 8 µg/mL in assay [4] (setting [14]); 2 µg/mL in [5]. Besides, the MIC in assay [6] (setting [15]) was 2 µg/mL; in assay [7], 16 µg/mL; in assay [8], 8 µg/mL; in assay [9] (setting [16]), 8 µg/mL; in [10], “-- (Compound not active at less than 128 mcg/ml)”; in assay [11] (setting [17]), 4 µg/mL.

With “N--[p-(dodecyloxy)phenylpropanoyl]A35512B [Example 9]”, the MIC turned out to be 4 µg/mL in assay [1] (setting [12]); 4 µg/mL with Streptococcus Group 9960 (setting [13]); 8 µg/mL in assay [3]; 8 µg/mL in [4] (setting [14]); 2 µg/mL in assay [5]; 2 µg/mL in [6] (setting [15]). For the same substance, the MIC in [7] was 16 µg/mL; in [8], 8 µg/mL; in [9] (setting [16]) it was 16 µg/mL; in assay [11] (setting [17]), 4 µg/mL. The ED50 with Staphylococcus aureus came to 70 mg/kg × 2.

For the substance “N--[N--(t-Boc)--11-aminoundecanoyl)A35512B [Example 6]”, the MIC turned out to be 2 µg/mL in assay [1] (setting [12]); 4 µg/mL against Streptococcus Group 9960 (setting [13]); 4 µg/mL in [3]; 4 µg/mL in assay [4] (setting [14]); 1 µg/mL in assay [5]; 1 µg/mL in [6] (setting [15]). In addition, the MIC in assay [7] came out at 8 µg/mL; in assay [8], 4 µg/mL; in [9] (setting [16]), 8 µg/mL; in assay [11] (setting [17]), 2 µg/mL.

For the substance “N--[N--(t-Boc)--11-aminoundecanoyl]A35512B pseudoaglycone [Example 14]”, the MIC in assay [1] (setting [12]) is 4 µg/mL; in the assay on Streptococcus Group 9960 (setting [13]), 8 µg/mL; in [2], “-- (Compound not active at less than 128 mcg/ml)”; in assay [3] it was 8 µg/mL; in assay [4] (setting [14]), 8 µg/mL; in assay [5] it was 4 µg/mL. For the same substance, the MIC was 4 µg/mL in assay [6] (setting [15]); 16 µg/mL in assay [7]; 8 µg/mL in assay [8]; 4 µg/mL in assay [9] (setting [16]); “-- (Compound not active at less than 128 mcg/ml)” in assay [10]; 8 µg/mL in assay [11] (setting [17]).

For the substance “N--[N--(hexanoyl)-L-tryptophyl]A35512B [Example 3]”, the MIC stood at 4 µg/mL in assay [1] (setting [12]); 2 µg/mL against Streptococcus Group 9960 (setting [13]); 8 µg/mL in assay [3]; 8 µg/mL in assay [4] (setting [14]); 1 µg/mL in assay [5]; 1 µg/mL in assay [6] (setting [15]). The MIC was found to be 8 µg/mL in [7], 4 µg/mL in assay [8], 8 µg/mL in assay [9] (setting [16]) and 4 µg/mL in assay [11] (setting [17]). This substance yielded an ED50 in the assay with Staphylococcus aureus of 10.84 mg/kg × 2.

Turning to N-(L-phenylalanyl)A35512B [Example 2], the MIC in assay [1] (setting [12]) came to 4 µg/mL; with Streptococcus Group 9960 (setting [13]) it was 4 µg/mL; in assay [3] it was 8 µg/mL; in [4] (setting [14]), 4 µg/mL; in assay [5], 4 µg/mL; in [6] (setting [15]), 2 µg/mL. Also, the MIC in assay [7] stood at 8 µg/mL; in [8], 4 µg/mL; in [9] (setting [16]), 4 µg/mL; in [11] (setting [17]), 4 µg/mL. This substance returned an ED50 in the assay on Staphylococcus aureus of 5.87 mg/kg × 2.

For the substance “N--(11-aminoundecanoyl)A35512B pseudoaglycone [Example 15]”, the MIC in assay [1] (setting [12]) was 2 µg/mL; with Streptococcus Group 9960 (setting [13]), 2 µg/mL; in assay [2], “-- (Compound not active at less than 128 mcg/ml)”; in assay [3], 1 µg/mL; in [4] (setting [14]), 1 µg/mL; in [5], “-- (Compound not active at less than 128 mcg/ml)”. Further, the MIC in [6] (setting [15]) was 1 µg/mL; in assay [7], 2 µg/mL; in [8], 1 µg/mL; in assay [9] (setting [16]) it was 2 µg/mL; in [10] it was “-- (Compound not active at less than 128 mcg/ml)”; in assay [11] (setting [17]), 1 µg/mL.

On to “N--[N--(t-Boc)--L-phenylalanyl)A47934 [Example 23]”, for which the MIC in assay [1] (setting [12]) worked out at 1 µg/mL; against Streptococcus Group 9960 (setting [13]), 2 µg/mL; in assay [2], 8 µg/mL; in assay [3], 0.25 µg/mL; in [4] (setting [14]), 0.125 µg/mL; in assay [5], 0.125 µg/mL. For the same substance, the MIC in assay [6] (setting [15]) stood at 0.5 µg/mL; in assay [7] it was 0.5 µg/mL; in assay [8] it was 0.125 µg/mL; in assay [9] (setting [16]) it was 0.125 µg/mL; in [10], 8 µg/mL; in assay [11] (setting [17]) it was 0.125 µg/mL.

As to “N-[N-(tert-butoxycarbonyl)-L-phenylalanyl]-A35512B [Example 1]”, the MIC in assay [1] (setting [12]) stood at 4 µg/mL; in the assay on Streptococcus Group 9960 (setting [13]), 2 µg/mL; in assay [3], 16 µg/mL; in assay [4] (setting [14]) it was 8 µg/mL; in assay [5] it was 2 µg/mL; in [6] (setting [15]) it was 1 µg/mL. For the same substance, the MIC came out at 32 µg/mL in assay [7], 8 µg/mL in assay [8], 8 µg/mL in assay [9] (setting [16]) and 8 µg/mL in assay [11] (setting [17]).

In the case of N--(D-phenylglycyl)A35512B [Example 5], the MIC in assay [1] (setting [12]) was found to be 8 µg/mL; against Streptococcus Group 9960 (setting [13]), 4 µg/mL; in assay [3], 8 µg/mL; in assay [4] (setting [14]), 4 µg/mL; in assay [5], 4 µg/mL; in [6] (setting [15]), 2 µg/mL. Moreover, the MIC in [7] worked out at 8 µg/mL; in [8] it was 8 µg/mL; in assay [9] (setting [16]), 4 µg/mL; in [11] (setting [17]), 4 µg/mL. In the assay with Staphylococcus aureus, this substance gave an ED50 of 14.4 mg/kg × 2.

Consider “N--(nonanoyl)A35512B pseudoaglycone [Example 13]”, for which the MIC in [1] (setting [12]) was 4 µg/mL; with Streptococcus Group 9960 (setting [13]), 2 µg/mL; in assay [2] it was “-- (Compound not active at less than 128 mcg/ml)”; in assay [3] it was 2 µg/mL; in [4] (setting [14]) it was 2 µg/mL; in assay [5], 4 µg/mL. In addition, the MIC in assay [6] (setting [15]) is 2 µg/mL; in assay [7], 4 µg/mL; in assay [8], 2 µg/mL; in [9] (setting [16]), 2 µg/mL; in [10] it was “-- (Compound not active at less than 128 mcg/ml)”; in [11] (setting [17]), 2 µg/mL.

On to “N--[N--(t-Boc)--L-phenylalanyl)A41030A [Example 16]”, for which the MIC is 1 µg/mL in assay [1] (setting [12]); 0.125 µg/mL in the assay with Streptococcus Group 9960 (setting [13]); 32 µg/mL in [2]; 0.5 µg/mL in assay [3]; 0.25 µg/mL in assay [4] (setting [14]); 0.5 µg/mL in [5]. Also, the MIC in assay [6] (setting [15]) turned out to be 0.5 µg/mL; in assay [7], 0.5 µg/mL; in assay [8] it was 0.25 µg/mL; in assay [9] (setting [16]), 0.25 µg/mL; in assay [10], 32 µg/mL; in [11] (setting [17]), 0.25 µg/mL.
